Results published in US20050209278A1, “Piperidinyl- and piperazinyl-sulfonylmethyl hydroxamic acids and their use as protease inhibitors” (priority 2002, published 2005).
Where two headings read alike, the source gives them in different places.

What was measured:
[1] = biological target: T1, MMP-2 (Homo sapiens, UniProt P08253); experiment: In vitro MMP inhibition, Ki determination (fluorogenic substrate II); type: biochemical; details: read-out: MMP-2 Ki
T1 construct: made in house; host or cells: MMP-2-transfected p2AHT2 cells
T1 sequence (P08253 110-660): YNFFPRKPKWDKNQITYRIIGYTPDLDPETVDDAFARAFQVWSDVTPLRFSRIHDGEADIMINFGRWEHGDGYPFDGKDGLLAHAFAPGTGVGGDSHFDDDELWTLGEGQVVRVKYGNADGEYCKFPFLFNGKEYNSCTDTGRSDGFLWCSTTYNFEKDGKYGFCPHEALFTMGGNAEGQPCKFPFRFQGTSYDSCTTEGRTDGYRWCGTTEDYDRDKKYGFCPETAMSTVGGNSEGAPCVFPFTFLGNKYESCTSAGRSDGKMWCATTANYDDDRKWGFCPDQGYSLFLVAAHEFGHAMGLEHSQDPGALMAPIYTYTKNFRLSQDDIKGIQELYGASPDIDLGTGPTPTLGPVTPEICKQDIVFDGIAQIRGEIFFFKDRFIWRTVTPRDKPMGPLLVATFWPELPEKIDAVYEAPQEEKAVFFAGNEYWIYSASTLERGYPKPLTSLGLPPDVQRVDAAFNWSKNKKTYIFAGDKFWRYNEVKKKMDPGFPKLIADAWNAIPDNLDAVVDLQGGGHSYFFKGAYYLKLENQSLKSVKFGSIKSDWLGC

[2] = biological target: T2, MMP-1 (Homo sapiens, UniProt P03956); experiment: as above; type: biochemical; details: read-out: MMP-1 Ki
T2 construct: made in house; host or cells: MMP-1-transfected HT-1080 cells (spent media)
T2 sequence (P03956 100-469): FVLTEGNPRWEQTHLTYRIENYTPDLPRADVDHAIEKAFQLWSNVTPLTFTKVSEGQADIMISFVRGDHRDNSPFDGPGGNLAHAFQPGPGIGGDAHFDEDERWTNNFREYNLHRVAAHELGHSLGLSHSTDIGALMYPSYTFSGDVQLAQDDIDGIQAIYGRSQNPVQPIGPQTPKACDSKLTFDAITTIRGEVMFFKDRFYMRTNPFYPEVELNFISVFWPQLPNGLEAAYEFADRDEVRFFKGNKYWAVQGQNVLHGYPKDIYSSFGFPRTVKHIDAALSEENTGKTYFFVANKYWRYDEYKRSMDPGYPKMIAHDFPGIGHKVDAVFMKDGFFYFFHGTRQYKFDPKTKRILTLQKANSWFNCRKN

Row | SMILES | Ki ([1]; value not in parenthesis) | Ki ([2]; value not in parenthesis) | Ki ([1]; value outside parentheses) | Ki ([2]; value outside parentheses)
1 | CCCCc1ccc(C2CCN(S(=O)(=O)C3(C(=O)NO)CCN(CCOC)CC3)CC2)s1 [Example 55] | 2.2 nM | > 10000 nM | – | –
2 | O=C(NO)C1(S(=O)(=O)N2CCN(c3ccc(COCC(F)(F)C(F)F)cc3)CC2)CCOCC1 [Example 71] | 2.35 nM | > 10000 nM | – | –
3 | O=C(NO)C1(S(=O)(=O)N2CCN(c3ccc(COCC(F)(F)F)cc3)CC2)CCOCC1 [Example 72] | 2.44 nM | > 10000 nM | – | –
4 | O=C(NO)C1(S(=O)(=O)N2CCN(c3ccc(OC4CCC4)c(F)c3)CC2)CCOCC1 [Example 73] | 2.2 nM | > 10000 nM | – | –
5 | O=C(NO)C1(S(=O)(=O)N2CCN(c3ccc(OCc4ccccc4)cn3)CC2)CCOCC1 [Example 74] | 0.5 nM | 3210 nM | – | –
6 | O=C(NO)C1(S(=O)(=O)N2CCN(c3ccc(-c4ccccc4)cc3)CC2)CCOCC1 [Example 76] | 0.19 nM | 1340 nM | – | –
7 | O=C(NO)C1(S(=O)(=O)N2CCN(c3ccc(CCC(F)(F)F)cc3)CC2)CCOCC1 [Example 77] | 0.38 nM | > 10000 nM | – | –
8 | CCN1CCC(C(=O)NO)(S(=O)(=O)N2CCN(c3ccc(OCCCC(F)(F)F)cc3)CC2)CC1 [Example 78] | 2.56 nM | > 10000 nM | – | –
9 | CC(C)COc1ccc(N2CCN(S(=O)(=O)C3(C(=O)NO)CCOCC3)CC2)cc1Cl [Example 79] | 10.1 nM | > 10000 nM | – | –
10 | O=C(NO)C1(S(=O)(=O)N2CCN(c3ccc(OCCCC(F)(F)F)cc3F)CC2)CCOCC1 [Example 81] | 0.407 nM | > 10000 nM | – | –
11 | O=C(NO)C1(S(=O)(=O)N2CCN(c3cccc(C(F)(F)F)c3)CC2)CCOCC1 [Example 82] | 8.74 nM | > 10000 nM | – | –
12 | O=C(NO)C1(S(=O)(=O)N2CCN(c3ccc(OCCCC(F)(F)F)cn3)CC2)CCOCC1 [Example 83] | 0.251 nM | 2850 nM | – | –
13 | CCCCOc1ccc(N2CCN(S(=O)(=O)C3(C(=O)NO)CCN(C(C)(C)C)CC3)CC2)c(F)c1 [Example 84] | 7.53 nM | > 10000 nM | – | –
14 | CCCCOc1ccc(N2CCN(S(=O)(=O)C3(C(=O)NO)Cc4ccccc4C3)CC2)nc1 [Example 85] | 0.64 nM | 4770 nM | – | –
15 | COCCN1CCC(C(=O)NO)(S(=O)(=O)N2CCN(c3ccc(OCCCCF)cc3)CC2)CC1 [Example 88] | 0.54 nM | > 10000 nM | – | –
16 | O=C(NO)C1(S(=O)(=O)N2CCN(c3ccc(OCCCCF)cc3)CC2)CCOCC1 [Example 89] | 0.49 nM | > 10000 nM | – | –
17 | CCCCOc1ccc(N2CCN(S(=O)(=O)C3(C(=O)NO)CCOCC3)CC2)c(F)c1 [Example 90] | 1.68 nM | > 10000 nM | – | –
18 | CCCCc1ccc(N2CCN(S(=O)(=O)C3(C(=O)NO)CCOCC3)CC2)c(F)c1 [Example 91] | 1.22 nM | 5110 nM | – | –
19 | CCCCOc1ccc(N2CCN(S(=O)(=O)C3(C(=O)NO)CCN(c4nc5ccccc5s4)CC3)CC2)cc1 [Example 93] | 6.92 nM | > 10000 nM | – | –
20 | O=C(NO)C1(S(=O)(=O)N2CCN(c3ccc(C(F)(F)F)cn3)CC2)CCOCC1 [Example 94] | 0.66 nM | 767 nM | – | –
21 | CCCCCc1ccc(N2CCN(S(=O)(=O)C3(C(=O)NO)CCN(c4ncccn4)CC3)CC2)nc1 [Example 95] | 0.64 nM | > 10000 nM | – | –
22 | CCCCc1ccc(N2CCN(S(=O)(=O)C3(C(=O)NO)CCN(c4cccnc4)CC3)CC2)nc1 [Example 96] | 0.2 nM | > 10000 nM | – | –
23 | CCCCOc1ccc(N2CCN(S(=O)(=O)C3(C(=O)NO)CCN(C(=O)OCC(C)(C)C)CC3)CC2)cc1 [Example 97] | 6.69 nM | > 10000 nM | – | –

Row | SMILES | Ki ([1]; value not in parenthesis) | Ki ([2]; value not in parenthesis) | Ki ([1]; value outside parentheses) | Ki ([2]; value outside parentheses)
24 | C#CCOC(=O)N1CCC(C(=O)NO)(S(=O)(=O)N2CCN(c3ccc(OCCCC)cc3)CC2)CC1 [Example 98] | 0.5 nM | > 10000 nM | – | –
25 | CCCCc1ccc(N2CCN(S(=O)(=O)C3(C(=O)NO)CCN(c4ncccn4)CC3)CC2)nc1 [Example 99] | 0.17 nM | 8300 nM | – | –
26 | CCCCOc1ccc(N2CCN(S(=O)(=O)C3(C(=O)NO)CCOCC3)CC2)nc1 [Example 100] | 0.13 nM | 1600 nM | – | –
27 | CCCCOc1ccc(N2CCN(S(=O)(=O)C3(C(=O)NO)CCN(c4ccc(Cl)c(Cl)c4)CC3)CC2)cc1 [Example 250] | 29.9 nM | > 10000 nM | – | –
28 | CCCCOc1ccc(N2CCN(S(=O)(=O)C3(C(=O)NO)CCN(c4ccc(Cl)cc4)CC3)CC2)cc1 [Example 251] | – | – | 22.5 nM | > 10000 nM
29 | CCCCOc1ccc(N2CCN(S(=O)(=O)C3(C(=O)NO)CCN(Cc4ccco4)CC3)CC2)cc1 [Example 252] | – | – | 1.38 nM | > 10000 nM
30 | CCCCOc1ccc(N2CCN(S(=O)(=O)C3(C(=O)NO)CCN(C(N)=O)CC3)CC2)cc1 [Example 253] | – | – | 0.761 nM | > 10000 nM
31 | CCCCOc1ccc(N2CCN(S(=O)(=O)C3(C(=O)NO)CCN(C(=O)N(C)C)CC3)CC2)cc1 [Example 254] | – | – | 0.309 nM | > 10000 nM
32 | CCCCOc1ccc(N2CCN(S(=O)(=O)C3(C(=O)NO)CCN(C(=O)c4ccccc4)CC3)CC2)cc1 [Example 255] | – | – | 0.858 nM | > 10000 nM
33 | CCCCOc1ccc(N2CCN(S(=O)(=O)C3(C(=O)NO)CCN(c4ccc(C(F)(F)F)cn4)CC3)CC2)cc1 [Example 257] | – | – | 9.64 nM | > 10000 nM
34 | O=C(NO)C1(S(=O)(=O)N2CCN(c3ccc(SC(F)(F)F)cc3)CC2)CCS(=O)(=O)CC1 [Example 258] | – | – | 4.06 nM | > 10000 nM
35 | CCCCOc1ccc(N2CCN(S(=O)(=O)C3(C(=O)NO)CCN(C(=O)c4ccncc4)CC3)CC2)cc1 [Example 259] | – | – | 0.468 nM | > 10000 nM
36 | CCCCOc1ccc(N2CCN(S(=O)(=O)C3(C(=O)NO)CCN(C(=O)C4CC4)CC3)CC2)cc1 [Example 260] | – | – | 0.467 nM | > 10000 nM
37 | CCc1ccc(N2CCN(S(=O)(=O)C3(C(=O)NO)CCCC3)CC2)nc1 [Example 261] | – | – | 0.276 nM | 632 nM
38 | CCc1ccc(N2CCN(S(=O)(=O)C3(C(=O)NO)CCCCC3)CC2)nc1 [Example 263] | – | – | 0.188 nM | 605 nM
39 | CCCCOc1ccc(N2CCN(S(=O)(=O)C3(C(=O)NO)CCN(c4ccccc4)CC3)CC2)cc1 [Example 264] | – | – | 8.23 nM | > 10000 nM
40 | CCCCOc1ccc(N2CCN(S(=O)(=O)C3(C(=O)NO)CCN(C(=O)CC(F)(F)F)CC3)CC2)cc1 [Example 265] | – | – | 0.878 nM | > 10000 nM
41 | CCCCOc1ccc(N2CCN(S(=O)(=O)C3(C(=O)NO)CCN(C(=O)c4cccnc4)CC3)CC2)cc1 [Example 266] | – | – | 0.422 nM | > 10000 nM
42 | CCCCOc1ccc(N2CCN(S(=O)(=O)C3(C(=O)NO)CCN(C(=O)C(C)(C)C)CC3)CC2)cc1 [Example 267] | – | – | 0.836 nM | > 10000 nM
43 | CCCCOc1ccc(N2CCN(S(=O)(=O)C3(C(=O)NO)CCN(C(=O)COC)CC3)CC2)cc1 [Example 268] | – | – | 0.564 nM | 9320 nM
44 | CCCCOc1ccc(N2CCN(S(=O)(=O)C3(C(=O)NO)CCN(C=O)CC3)CC2)cc1 [Example 269] | – | – | 0.436 nM | 6400 nM
45 | CCCCc1ccc(N2CCN(S(=O)(=O)C3(C(=O)NO)CCN(CCOC)CC3)CC2)nc1 [Example 270] | – | – | 0.176 nM | > 10000 nM
46 | CCCCOc1ccc(N2CCN(S(=O)(=O)C3(C(=O)NO)CCN(C(=O)CO)CC3)CC2)cc1 [Example 271] | – | – | 0.668 nM | 7470 nM
